Assay results as given in DBAASP.
In brackets after ≈: the same amount, converted by molar mass. Blank lines part the entries; values can stand above or below the molecule they belong to.

Assays:
Test in all cases: ≥ marks a high value that may be exact or a test limit, other limits are often not marked, values filed in µg/mL are converted to µM
[1] = tested on: Candida albicans ATCC 90028
[2] = tested on: Pseudomonas aeruginosa ATCC 27853
[3] = tested on: Klebsiella pneumoniae KK3 9904
Candida albicans = tested on: Candida albicans
[4] = tested on: Staphylococcus aureus NCTC 8325
[5] = tested on: Enterococcus faecalis ATCC 29212
[6] = tested on: Batrachochytrium dendrobatidis JEL-197
[7] = tested on: Candida parapsilosis ATCC 22019
Candida parapsilosis = tested on: Candida parapsilosis
Candida tropicalis = tested on: Candida tropicalis
[8] = tested on: Staphylococcus epidermidis RP62A
[9] = tested on: Proteus mirabilis ATCC 25933
Candida krusei = tested on: Candida krusei
[10] = tested on: Enterobacter cloacae HNTCC 53001
Candida krusei ATCC 6258 = tested on: Candida krusei ATCC 6258
[11] = tested on: Escherichia coli ATCC 25922
[12] = tested on: Stenotrophomonas maltophilia CUN 3998-00
[13] = tested on: Staphylococcus aureus ATCC 25923
[14] = tested on: Acinetobacter baumannii ATCC 19606
[15] = tested on: Pseudomonas aeruginosa CUN 4158-02
[16] = tested on: Staphylococcus aureus CUN 3792-99
[17] = tested on: Staphylococcus aureus ATCC 43300
[18] = tested on: Bordetella bronchiseptica CUN 11844-99
[19] = tested on: Pseudomonas aeruginosa ATCC 9027
[20] = tested on: Enterobacter cloacae 14-262
[21] = tested on: Staphylococcus aureus 01-001
Escherichia coli 5509 = tested on: Escherichia coli 5509
[22] = tested on: Enterobacter cloacae 06-267
Escherichia coli 170 = tested on: Escherichia coli 170
Escherichia coli 09-240 = tested on: Escherichia coli 09-240
[23] = tested on: Klebsiella pneumoniae 01-252
[24] = tested on: Klebsiella pneumoniae 01-239
[25] = tested on: Pseudomonas aeruginosa 3599
[26] = tested on: Staphylococcus aureus ATCC 29213
Escherichia coli 09-280 = tested on: Escherichia coli 09-280
[27] = tested on: Pseudomonas aeruginosa 5106
[28] = tested on: Staphylococcus aureus 06-051
[29] = tested on: Acinetobacter baumannii 5821
[30] = tested on: Candida albicans ATCC 14053
[31] = tested on: Pseudomonas aeruginosa ATCC 15442
[32] = tested on: Escherichia coli CCT 1457
[33] = tested on: Escherichia coli ATCC 43827
[34] = tested on: Cronobacter sakazakii ATCC 29544
[35] = tested on: Staphylococcus epidermidis ATCC 12228
[36] = tested on: Candida glabrata ATCC 2001
[37] = tested on: Klebsiella pneumoniae ATCC 700603
[38] = tested on: Candida tropicalis ATCC 750
[39] = tested on: Staphylococcus aureus CCT 2580
[40] = tested on: Bacillus cereus ATCC 11778

MIC [1]: 3 µM (≈ 7.82 µg/mL)
MIC [2]: 10 µM (≈ 26.1 µg/mL)
MIC [3]: ≥ 40 µM
MIC (Candida albicans): 5 µM (≈ 13 µg/mL)
MIC [4]: 2 µM (≈ 5.21 µg/mL)
MIC [5]: 5 µM (≈ 13 µg/mL)
MIC [6]: 12.5 µM (≈ 32.6 µg/mL)
MIC [7]: 5 µM (≈ 13 µg/mL)
MIC (Candida parapsilosis): 10 µM (≈ 26.1 µg/mL)
MIC (Candida tropicalis): 5 µM (≈ 13 µg/mL)
MIC [8]: 5 µM (≈ 13 µg/mL)
MIC [9]: ≥ 40 µM
MIC (Candida krusei): 10 µM (≈ 26.1 µg/mL)
MIC [10]: 10 µM (≈ 26.1 µg/mL)
MIC (Candida krusei ATCC 6258): 5 µM (≈ 13 µg/mL)
MIC [11]: 17 µM (≈ 44.3 µg/mL)
Compound: CC[C@H](C)[C@H](NC(=O)[C@@H]1CCCN1C(=O)[C@H](CC(C)C)NC(=O)[C@@H](N)Cc1ccccc1)C(=O)N[C@@H](CC(C)C)C(=O)N[C@@H](C)C(=O)N[C@@H](CO)C(=O)N[C@@H](CC(C)C)C(=O)N[C@@H](C)C(=O)N[C@@H](C)C(=O)N[C@@H](CCCCN)C(=O)N[C@@H](Cc1ccccc1)C(=O)NCC(=O)N1CCC[C@H]1C(=O)N[C@@H](CCCCN)C(=O)N[C@@H](CC(C)C)C(=O)N[C@@H](Cc1ccccc1)C(=O)N[C@H]1CSSC[C@@H](C(=O)O)NC(=O)[C@H](CCCCN)NC(=O)[C@H](CCCCN)NC(=O)[C@H]([C@@H](C)O)NC(=O)[C@H](C(C)C)NC(=O)[C@H](CC(C)C)NC1=O [FLPILASLAAKFGPKLFCLVTKKC]

MIC [2]: 40.7 µM (≈ 128 µg/mL)
MIC [12]: 20.3 µM (≈ 64 µg/mL)
MIC [13]: 20.3 µM (≈ 64 µg/mL)
MIC [14]: 20.3 µM (≈ 64 µg/mL)
MIC [15]: ≥ 40.7 µM
MIC [16]: 20.3 µM (≈ 64 µg/mL)
MIC [17]: 10.2 µM (≈ 32 µg/mL)
MIC [11]: 20.3 µM (≈ 64 µg/mL)
MIC [18]: 10.2 µM (≈ 32 µg/mL)
Compound: NCCCC[C@H](NC(=O)[C@H](Cc1ccccc1)NC(=O)[C@H](CCCN=C(N)N)NC(=O)[C@H](CCCN=C(N)N)NC(=O)[C@H](CS)NC(=O)CN)C(=O)N[C@@H](CCCCN)C(=O)N[C@@H](Cc1ccccc1)C(=O)N[C@@H](CCCCN)C(=O)N[C@@H](CCCCN)C(=O)N[C@@H](Cc1c[nH]c2ccccc12)C(=O)N[C@@H](CCCN=C(N)N)C(=O)N[C@@H](Cc1ccc(O)cc1)C(=O)N[C@@H](CCCN=C(N)N)C(=O)NCC(=O)N[C@@H](CCCN=C(N)N)C(=O)N[C@@H](Cc1ccccc1)C(=O)N[C@@H](Cc1c[nH]c2ccccc12)C(=O)N[C@@H](Cc1ccccc1)C(=O)N[C@@H](Cc1c[nH]c2ccccc12)C(=O)N[C@@H](CS)C(=O)N[C@@H](Cc1ccccc1)C(=O)NCC(N)=O [GCRRFKKFKKWRYRGRFWFWCFG]

MIC [19]: 10 µM (≈ 16 µg/mL)
MIC [20]: 14 µM (≈ 22.5 µg/mL)
MIC [2]: > 32 µM
MIC [21]: 4 µM (≈ 6.42 µg/mL)
MIC (Escherichia coli 5509): ≥ 32 µM
MIC [22]: ≥ 32 µM
MIC (Escherichia coli 170): ≥ 32 µM
MIC (Escherichia coli 09-240): 14 µM (≈ 22.5 µg/mL)
MIC [23]: ≥ 32 µM
MIC [24]: 12 µM (≈ 19.2 µg/mL)
MIC [25]: ≥ 32 µM
MIC [13]: 15 µM (≈ 24.1 µg/mL)
MIC [26]: 4 µM (≈ 6.42 µg/mL)
MIC (Escherichia coli 09-280): ≥ 32 µM
MIC [27]: ≥ 32 µM
MIC [28]: 4 µM (≈ 6.42 µg/mL)
MIC [29]: 7 µM (≈ 11.2 µg/mL)
MIC [11]: 10 µM (≈ 16 µg/mL)
Compound: CC[C@H](C)[C@H](NC(=O)[C@H](C)NC(=O)[C@H](CC(N)=O)NC(=O)[C@H](CCCCN)NC(=O)[C@@H](NC(=O)CNC(=O)[C@H](CCC(=O)O)NC(=O)[C@H](Cc1c[nH]c2ccccc12)NC(=O)[C@H](CC(C)C)NC(=O)[C@H](CCCCN)NC(=O)CNC(=O)[C@H](Cc1c[nH]c2ccccc12)NC(=O)[C@H](Cc1ccccc1)NC(=O)CN)C(C)C)C(N)=O [GFWGKLWEGVKNAI]

MIC [30]: 16 µM (≈ 25.8 µg/mL)
MIC [2]: 8 µM (≈ 12.9 µg/mL)
MIC [31]: ≥ 38.4 µM
MIC [32]: 4.96 µM (≈ 8 µg/mL)
MIC [7]: 16 µM (≈ 25.8 µg/mL)
MIC [33]: 8 µM (≈ 12.9 µg/mL)
MIC [26]: 4 µM (≈ 6.45 µg/mL)
MIC [34]: 16 µM (≈ 25.8 µg/mL)
MIC [35]: 4 µM (≈ 6.45 µg/mL)
MIC [36]: 8 µM (≈ 12.9 µg/mL)
MIC [37]: 4 µM (≈ 6.45 µg/mL)
MIC [38]: 2 µM (≈ 3.23 µg/mL)
MIC [39]: 2.48 µM (≈ 4 µg/mL)
MIC (Candida krusei ATCC 6258): 8 µM (≈ 12.9 µg/mL)
MIC [40]: 4.96 µM (≈ 8 µg/mL)
MIC [11]: 8 µM (≈ 12.9 µg/mL)
Compound: CC[C@H](C)[C@H](N)C(=O)N[C@@H](CC(N)=O)C(=O)N[C@@H](Cc1c[nH]c2ccccc12)C(=O)N[C@@H](CC(C)C)C(=O)N[C@@H](CCCCN)C(=O)N[C@@H](CC(C)C)C(=O)NCC(=O)N[C@@H](CCCCN)C(=O)N[C@@H](CCSC)C(=O)N[C@H](C(=O)N[C@H](C(=O)N[C@@H](CC(=O)O)C(=O)N[C@@H](C)C(=O)N[C@@H](CC(C)C)C(N)=O)[C@@H](C)CC)C(C)C [INWLKLGKMVIDAL]
